Starred links: 1 amine or outer side, 2 acyl side, 3 side chain; linkers in the order of their positions; H or OH if unused. Positions of bridges follow the written chain, without caps; N, C: chain ends. Non-standard residues stand in square brackets, D forms with d. Residues, ends and D or L forms follow the SMILES beside them. Groups on a side chain read outwards from the residue. *: point of attachment. Trp(1-CH2COOH) = N[C@@H](Cc1cn(CC(=O)O)c2ccccc12)C(=O)O; X3 = CN([C@@H](Cc1cccc(C(=O)[*:3])c1)C(=O)[*:2])[*:1]; NMePhe(4-COOH) = CN[C@@H](Cc1ccc(C(=O)O)cc1)C(=O)O; X1 = O=C([C@H](Cc1cccc(C(=O)[*:3])c1)N[*:1])[*:2]; Nle(6-morpholino) = N[C@@H](CCCCN1CCOCC1)C(=O)O; NMePhe(3-Cl) = CN[C@@H](Cc1cccc(Cl)c1)C(=O)O; Piperazinyl(4-CH2COOH) = O=C(O)CN1CCN(*)CC1; 3Pal(6-NH2) = Nc1ccc(C[C@H](N)C(=O)O)cn1; NMeY = CN[C@@H](Cc1ccc(O)cc1)C(=O)O; NH(CH2CH2O)4Me = COCCOCCOCCOCCN*; 4Pal = N[C@@H](Cc1ccncc1)C(=O)O; PEG4 = NCCOCCOCCOCCOCCC(=O)O; Carboxymethyl = O=C(O)C*; CO = O=C([*:1])[*:2]
biological target: T1, human transferrin receptor (hTfR) (Homo sapiens, UniProt P02786); test: Evaluation of molecular interaction between transferrin receptor (hTfR) and peptide using surface plasmon resonance (SPR); format: binding; conditions: surface plasmon resonance, binding to hTfR; KD class symbol; read-out: SPR (KD value)
T1 construct: made in house
T1 sequence (P02786 89-760 limits assumed): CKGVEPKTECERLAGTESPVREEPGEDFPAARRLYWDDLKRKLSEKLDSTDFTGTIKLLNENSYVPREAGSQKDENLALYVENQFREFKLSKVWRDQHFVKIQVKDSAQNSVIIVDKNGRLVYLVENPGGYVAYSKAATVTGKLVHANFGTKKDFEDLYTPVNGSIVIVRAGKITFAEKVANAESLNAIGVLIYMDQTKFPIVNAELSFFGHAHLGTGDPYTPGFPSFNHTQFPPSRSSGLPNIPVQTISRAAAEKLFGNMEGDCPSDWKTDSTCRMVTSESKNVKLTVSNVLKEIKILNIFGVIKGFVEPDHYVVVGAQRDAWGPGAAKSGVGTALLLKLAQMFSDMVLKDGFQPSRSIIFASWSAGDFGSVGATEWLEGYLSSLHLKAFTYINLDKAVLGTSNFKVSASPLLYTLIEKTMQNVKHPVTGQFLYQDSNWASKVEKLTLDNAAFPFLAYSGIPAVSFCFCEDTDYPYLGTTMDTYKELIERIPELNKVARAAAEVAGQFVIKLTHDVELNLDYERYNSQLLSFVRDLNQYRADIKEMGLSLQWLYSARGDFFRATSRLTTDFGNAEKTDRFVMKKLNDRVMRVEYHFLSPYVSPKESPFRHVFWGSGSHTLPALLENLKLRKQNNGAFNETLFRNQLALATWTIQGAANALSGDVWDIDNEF
How it was run: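 Recombinant hTfR dimer (0.5 μM) immobilized on Ni-loaded NTA chip via EDC/NHS, ethanolamine-capped. Peptides at 5–100 nM in HEPES pH 8.0 buffer with 150 mM NaCl, 0.05% Tween 20, 0.1% BSA, 1.0% DMSO, flowed by single-cycle kinetics; KD from least-squares fit of sensorgrams.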

SMILES	Kd
CC[C@H](C)[C@@H]1NC(=O)[C@H](Cc2ccc(OCC(=O)O)cc2)NC(=O)[C@H](Cc2ccc(O)cc2)NC(=O)[C@H](CC(N)=O)NC(=O)[C@H](Cc2c[nH]c3ccccc23)NC(=O)[C@H](C(C)C)NC(=O)[C@H](Cc2cccc(Cl)c2)N(C)C(=O)[C@H](C(C)C)NC(=O)[C@H](C)NC(=O)CSC[C@@H](C(=O)NCCOCCOCCOCCOCCC(N)=O)NC(=O)[C@H](Cc2ccc(O)cc2)N(C)C(=O)[C@H](CCC(=O)NCCOCCOCCOCCOC)NC(=O)[C@H](CCCNC(=N)N)NC(=O)[C@H](CCC(=O)NCCOCCOCCOCCOC)NC(=O)[C@H]([C@@H](C)CC)NC1=O [compound 124] ({CH2CO}-AV[NMePhe(3-Cl)]VWNYY(Carboxymethyl)IIE(NH(CH2CH2O)4Me)RE(NH(CH2CH2O)4Me)[NMeY]C[PEG4]-NH2; thioether N-15)	1 to 100 nM
CC[C@H](C)[C@@H]1NC(=O)[C@H](Cc2ccc(OCC(=O)O)cc2)NC(=O)[C@H](Cc2ccc(O)cc2)NC(=O)[C@H](CC(N)=O)NC(=O)[C@H](Cc2c[nH]c3ccccc23)NC(=O)[C@H](C(C)C)NC(=O)[C@H](Cc2cccc(Cl)c2)N(C)C(=O)[C@H](C(C)C)NC(=O)[C@H](C)NC(=O)CSC[C@@H](C(=O)NCC(=O)N[C@H](CO)C(=O)N[C@H](CO)C(=O)N[C@H](CO)C(=O)N[C@H](CO)C(=O)N[C@H](CO)C(N)=O)NC(=O)[C@H](Cc2ccc(O)cc2)N(C)C(=O)[C@H](CCC(=O)NCCOCCOCCOCCOC)NC(=O)[C@H](CCCNC(=N)N)NC(=O)[C@H](CCC(=O)NCCOCCOCCOCCOC)NC(=O)[C@H]([C@@H](C)CC)NC1=O [compound 125]	1 to 100 nM
CC[C@H](C)[C@@H]1NC(=O)[C@H](Cc2ccc(OCC(=O)O)cc2)NC(=O)[C@H](Cc2ccc(O)cc2)NC(=O)[C@H](CC(N)=O)NC(=O)[C@H](Cc2c[nH]c3ccccc23)NC(=O)[C@H](C(C)C)NC(=O)[C@H](Cc2cccc(Cl)c2)N(C)C(=O)[C@H](C(C)C)NC(=O)[C@H](C)NC(=O)CSC[C@@H](C(=O)NCCOCCOCCOCCOCCC(N)=O)NC(=O)[C@H](Cc2ccc(O)cc2)N(C)C(=O)[C@H](Cc2cccc(C(=O)NCCOCCOCCOCCOC)c2)NC(=O)[C@H](CCCNC(=N)N)NC(=O)[C@H](CCC(=O)NCCOCCOCCOCCOC)NC(=O)[C@H]([C@@H](C)CC)NC1=O [compound 126]	1 to 100 nM
CC[C@H](C)[C@@H]1NC(=O)[C@H](Cc2ccc(OCC(=O)O)cc2)NC(=O)[C@H](Cc2ccc(O)cc2)NC(=O)[C@H](CC(N)=O)NC(=O)[C@H](Cc2c[nH]c3ccccc23)NC(=O)[C@H](C(C)C)NC(=O)[C@H](Cc2cccc(Cl)c2)N(C)C(=O)[C@H](C(C)C)NC(=O)[C@H](C)NC(=O)CSC[C@@H](C(=O)NCCOCCOCCOCCOCCC(N)=O)NC(=O)[C@H](Cc2ccc(C(=O)NCCOCCOCCOCCOC)cc2)N(C)C(=O)[C@H](Cc2cccc(C(=O)NCCOCCOCCOCCOC)c2)NC(=O)[C@H](CCCNC(=N)N)NC(=O)[C@H](CCC(N)=O)NC(=O)[C@H]([C@@H](C)CC)NC1=O [compound 127] ({CH2CO}-AV[NMePhe(3-Cl)]VWNYY(Carboxymethyl)IIQR[X1](NH(CH2CH2O)4Me)[NMePhe(4-COOH)](NH(CH2CH2O)4Me)C[PEG4]-NH2; thioether N-15)	1 to 100 nM
CC[C@H](C)[C@@H]1NC(=O)[C@H](Cc2ccc(OCC(=O)O)cc2)NC(=O)[C@H](Cc2ccc(O)cc2)NC(=O)[C@H](CC(N)=O)NC(=O)[C@H](Cc2c[nH]c3ccccc23)NC(=O)[C@H](C(C)C)NC(=O)[C@H](Cc2cccc(Cl)c2)N(C)C(=O)[C@H](C(C)C)NC(=O)[C@H](C)NC(=O)CSC[C@@H](C(=O)NCCOCCOCCOCCOCCC(N)=O)NC(=O)[C@H](Cc2cccc(C(=O)NCCOCCOCCOCCOC)c2)N(C)C(=O)[C@H](Cc2cccc(C(=O)NCCOCCOCCOCCOC)c2)NC(=O)[C@H](CCCNC(=N)N)NC(=O)[C@H](CCC(N)=O)NC(=O)[C@H]([C@@H](C)CC)NC1=O [compound 128] ({CH2CO}-AV[NMePhe(3-Cl)]VWNYY(Carboxymethyl)IIQR[X1](NH(CH2CH2O)4Me)[X3](NH(CH2CH2O)4Me)C[PEG4]-NH2; thioether N-15)	1 to 100 nM
CC[C@H](C)[C@@H]1NC(=O)[C@H](Cc2ccc(OCC(=O)O)cc2)NC(=O)[C@H](Cc2ccc(O)cc2)NC(=O)[C@H](CC(N)=O)NC(=O)[C@H](Cc2c[nH]c3ccccc23)NC(=O)[C@H](C(C)C)NC(=O)[C@H](Cc2cccc(Cl)c2)N(C)C(=O)[C@H](C(C)C)NC(=O)[C@H](C)NC(=O)CSC[C@@H](C(=O)NCC(=O)N[C@H](CO)C(=O)N[C@H](CO)C(=O)N[C@H](CO)C(=O)N[C@H](CO)C(=O)N[C@H](CO)C(N)=O)NC(=O)[C@H](Cc2cccc(C(=O)NCCOCCOCCOCCOC)c2)N(C)C(=O)[C@H](Cc2cccc(C(=O)NCCOCCOCCOCCOC)c2)NC(=O)[C@H](CCCNC(=N)N)NC(=O)[C@H](CCC(N)=O)NC(=O)[C@H]([C@@H](C)CC)NC1=O [compound 129]	1 to 100 nM

The next lines start with the values.

Kd	SMILES
1 to 100 nM	CC[C@H](C)[C@@H]1NC(=O)[C@H](Cc2ccc(OCC(=O)O)cc2)NC(=O)[C@H](Cc2ccc(N)nc2)NC(=O)[C@H](CC(N)=O)NC(=O)[C@H](Cc2cn(CC(=O)O)c3ccccc23)NC(=O)[C@H](C(C)C)NC(=O)[C@H](Cc2cccc(Cl)c2)N(C)C(=O)[C@H](C(C)C)NC(=O)[C@H](C)NC(=O)CSC[C@@H](C(=O)NCCOCCOCCOCCOCCC(N)=O)NC(=O)[C@H](Cc2ccc(O)cc2)N(C)C(=O)[C@H](Cc2ccncc2)NC(=O)[C@H](CCCNC(=N)N)NC(=O)[C@H](CCC(=O)NCCOCCOCCOCCOC)NC(=O)[C@H]([C@@H](C)CC)NC1=O [compound 117]
1 to 100 nM	CC[C@H](C)[C@@H]1NC(=O)[C@H](Cc2ccc(OCC(=O)O)cc2)NC(=O)[C@H](Cc2ccc(N)nc2)NC(=O)[C@H](CC(N)=O)NC(=O)[C@H](Cc2c[nH]c3ccccc23)NC(=O)[C@H](C(C)C)NC(=O)[C@H](Cc2cccc(Cl)c2)N(C)C(=O)[C@H](C(C)C)NC(=O)[C@H](C)NC(=O)CSC[C@@H](C(=O)NCCOCCOCCOCCOCCC(N)=O)NC(=O)[C@H](Cc2ccc(O)cc2)N(C)C(=O)[C@H](Cc2ccncc2)NC(=O)[C@H](CCCCNC(=O)N2CCN(CC(=O)O)CC2)NC(=O)[C@H](CCC(=O)NCCOCCOCCOCCOC)NC(=O)[C@H]([C@@H](C)CC)NC1=O [compound 118] ({CH2CO}-AV[NMePhe(3-Cl)]VWN[3Pal(6-NH2)]Y(Carboxymethyl)IIE(NH(CH2CH2O)4Me)K([CO-Piperazinyl(4-CH2COOH)])[4Pal][NMeY]C[PEG4]-NH2; thioether N-15)
< 1 nM	CC[C@H](C)[C@@H]1NC(=O)[C@H](Cc2ccc(OCC(=O)O)cc2)NC(=O)[C@H](Cc2ccc(O)cc2)NC(=O)[C@H](CC(N)=O)NC(=O)[C@H](Cc2cn(CC(=O)O)c3ccccc23)NC(=O)[C@H](C(C)C)NC(=O)[C@H](Cc2cccc(Cl)c2)N(C)C(=O)[C@H](C(C)C)NC(=O)[C@H](C)NC(=O)CSC[C@@H](C(=O)NCCOCCOCCOCCOCCC(N)=O)NC(=O)[C@H](Cc2ccc(O)cc2)N(C)C(=O)[C@H](Cc2ccccc2)NC(=O)[C@H](CCCCN2CCOCC2)NC(=O)[C@H](CCC(=O)NCCOCCOCCOCCOC)NC(=O)[C@H]([C@@H](C)CC)NC1=O [compound 119] ({CH2CO}-AV[NMePhe(3-Cl)]V[Trp(1-CH2COOH)]NYY(Carboxymethyl)IIE(NH(CH2CH2O)4Me)[Nle(6-morpholino)]F[NMeY]C[PEG4]-NH2; thioether N-15)
1 to 100 nM	CC[C@H](C)[C@@H]1NC(=O)[C@H](Cc2ccc(OCC(=O)O)cc2)NC(=O)[C@H](Cc2ccc(O)cc2)NC(=O)[C@H](CC(N)=O)NC(=O)[C@H](Cc2c[nH]c3ccccc23)NC(=O)[C@H](C(C)C)NC(=O)[C@H](Cc2cccc(Cl)c2)N(C)C(=O)[C@H](C(C)C)NC(=O)[C@H](C)NC(=O)CSC[C@@H](C(=O)NCCOCCOCCOCCOCCC(N)=O)NC(=O)[C@H](Cc2ccc(O)cc2)N(C)C(=O)[C@H](Cc2ccccc2)NC(=O)[C@H](CCCCN2CCOCC2)NC(=O)[C@H](CCC(=O)NCCOCCOCCOCCOC)NC(=O)[C@H]([C@@H](C)CC)NC1=O [compound 120]
1 to 100 nM	CC[C@H](C)[C@@H]1NC(=O)[C@H](Cc2ccc(OCC(=O)O)cc2)NC(=O)[C@H](Cc2ccc(O)cc2)NC(=O)[C@H](CC(N)=O)NC(=O)[C@H](Cc2c[nH]c3ccccc23)NC(=O)[C@H](C(C)C)NC(=O)[C@H](Cc2cccc(Cl)c2)N(C)C(=O)[C@H](C(C)C)NC(=O)[C@H](C)NC(=O)CSC[C@@H](C(=O)NCCOCCOCCOCCOCCC(N)=O)NC(=O)[C@H](Cc2ccc(O)cc2)N(C)C(=O)[C@H](Cc2ccccc2)NC(=O)[C@H](CCCCN)NC(=O)[C@H](CCC(=O)NCCOCCOCCOCCOC)NC(=O)[C@H]([C@@H](C)CC)NC1=O [compound 121] ({CH2CO}-AV[NMePhe(3-Cl)]VWNYY(Carboxymethyl)IIE(NH(CH2CH2O)4Me)KF[NMeY]C[PEG4]-NH2; thioether N-15)
1 to 100 nM	CC[C@H](C)[C@@H]1NC(=O)[C@H](Cc2ccc(OCC(=O)O)cc2)NC(=O)[C@H](Cc2ccc(O)cc2)NC(=O)[C@H](CC(N)=O)NC(=O)[C@H](Cc2c[nH]c3ccccc23)NC(=O)[C@H](C(C)C)NC(=O)[C@H](Cc2cccc(Cl)c2)N(C)C(=O)[C@H](C(C)C)NC(=O)[C@H](C)NC(=O)CSC[C@@H](C(=O)NCCOCCOCCOCCOCCC(N)=O)NC(=O)[C@H](Cc2ccc(O)cc2)N(C)C(=O)[C@H](Cc2ccccc2)NC(=O)[C@H](CCCCN(C)C)NC(=O)[C@H](CCC(=O)NCCOCCOCCOCCOC)NC(=O)[C@H]([C@@H](C)CC)NC1=O [compound 122]
1 to 100 nM	CC[C@H](C)[C@@H]1NC(=O)[C@H](Cc2ccc(OCC(=O)O)cc2)NC(=O)[C@H](Cc2ccc(O)cc2)NC(=O)[C@H](CC(N)=O)NC(=O)[C@H](Cc2c[nH]c3ccccc23)NC(=O)[C@H](C(C)C)NC(=O)[C@H](Cc2cccc(Cl)c2)N(C)C(=O)[C@H](C(C)C)NC(=O)[C@H](C)NC(=O)CSC[C@@H](C(=O)NCCOCCOCCOCCOCCC(N)=O)NC(=O)[C@H](Cc2ccc(O)cc2)N(C)C(=O)[C@H](Cc2ccccc2)NC(=O)[C@H](CCC(N)=O)NC(=O)[C@H](CCC(=O)NCCOCCOCCOCCOC)NC(=O)[C@H]([C@@H](C)CC)NC1=O [compound 123] ({CH2CO}-AV[NMePhe(3-Cl)]VWNYY(Carboxymethyl)IIE(NH(CH2CH2O)4Me)QF[NMeY]C[PEG4]-NH2; thioether N-15)

From US20260116920A1, “HUMAN TRANSFERRIN RECEPTOR BINDING PEPTIDE” (PEPTIDREAM INC., priority 2021, published 2026)
